Legend:
[1] = system: MBP-FALDR enzyme; experiment: Initial assessment of activity: overnight reaction with NADPH/NADH or NADP+, GC/GC-MS analysis; type: biochemical, Marinobacter aquaeolei VT8
Procedure: For initial assessment of the activity of the purified MBP-FALDR enzyme, 50 μg of purified MBP-FALDR protein was added to a reaction mixture containing 100 mM of Tris buffer at pH 7.9, 100 mM NaCl, 2.4 mM of either NADPH or NADH as a reductant, and decanal, oleic acid, and hexadecanol as possible substrates. The assays were run under an argon atmosphere in septa sealed vials overnight at room temperature with constant gentle mixing. The products of the reactions were then extracted from the buffer by adding an equal volume of hexane and organic layer components were analyzed by gas chromatography equipped with a flame ionization detector (Forte HT5 column (SGE Analytical Science, Austin, Tex.), 30 meter by 0.32 mm inner diameter with 0.5 μm film thickness, with argon as a carrier and a temperature ramp from 60° C. to 360° C. increasing at 10° C. per minute). Samples containing new peaks not present in a control sample were also run through a gas chromatograph equipped with a mass spectrometer (Shimadzu GC-2010 and GCMS-QP2010S) to assign the identity of the product.
Preliminary experiments were run with the MBP-FALDR enzyme to probe possible substrates by mixing either NADH or NADPH with an aldehyde (decanal), alcohol (hexadecanol) or fatty acid (oleic acid) and then looking for changes in concentration of one or more of the potential substrates by GC analysis. The assays were allowed to run overnight in a sealed vial under an atmosphere of argon to maintain the reduced forms of the nicotinamide coenzymes. […] This initial result pointed to the likelihood that the MBP-FALDR enzyme is an NADPH-dependent fatty aldehyde reductase, and further experiments were run to characterize this activity. […] The activity of medium chain alcohol dehydrogenases from a broad range of species show rates of oxidation of alcohols that are 10% of the rates of the reduction of the corresponding aldehyde, so it is possible that this rate is too low to detect.

[2] = system: MBP-FALDR enzyme; experiment: Reversibility and cofactor test, spectrophotometric at 340 nm (NADP+, NADH, NAD+); type: biochemical, Marinobacter aquaeolei VT8; settings: NADH with decanal, NAD+ with decanol, in place of NADPH/NADP+
Excerpt: When the assay was used to check for activity with NADH in place of NADPH, NADH was substituted for NADPH at the same concentration as was used for NADPH, and the assay run as described above. Reactions using either NADP^+ or NAD^+ also used the same concentration, but it followed the increase in absorbance monitored at 340 nm. Once the pH optimum was established for the enzyme, TAPS and MOPS were removed from the buffer, and only MES was used.
To test the possible reversibility of the fatty aldehyde reducatase enzyme comprising the amino acid sequence of SEQ ID NO: 2, the oxidation of a number of alcohols to the corresponding aldehyde using NADP^+ as the oxidant were tested. These tests were performed with the MBP-FALDR enzyme. In these assays, the increase in absorbance at 340 nm was followed. Under no conditions did any reduction of NADP^+ occur in the presence of the fatty alcohols tested. As a control, the alcohol dehydrogenase from Thermoanaerobium brokii was followed with 2-propanol and the same stock of NADP^+ to confirm the integrity of the assay.

[3] = system: MBP-FALDR fusion protein; experiment: Inhibition of decanal reduction by MBP-FALDR in the presence of NADPH; type: biochemical, Marinobacter aquaeolei VT8; settings: at the two concentrations tested
Procedure: (§1) For Fatty Aldehyde Continuous Spectrophotometric Assay Development, all assays were performed in a sealed quartz cuvette with a 1 cm path length. The cuvette and solutions were first degassed with argon on a manifold to remove oxygen from the headspace and solutions. Substrates were initially disbursed into a buffer solution containing BSA at a concentration of 0.5 mg/mL by sonication for three ten second intervals using a microtip sonicator (Branson, Danbury, Conn.). The initial assay for pH optimization included a buffer of 100 mM MOPS, 100 mM MES, and 100 mM TAPS. For reduction assays, 75 μL of a 2 mg/mL NADPH stock was added to bring the initial concentration of NADPH in the cuvette to approximately 200 μM, and an approximate absorbance at 340 nm of 1.2 based on the reported extinction coefficient of 6220 M^−1 cm^−1 for NADPH. In all assays, the reaction was run for at least two minutes with the NADPH and substrate present, prior to the addition of any enzyme, to obtain a background oxidation rate of the NADPH.
Finally, the ability of decanol to inhibit reduction of decanal was also tested.
Referring again to Table 2, the inhibition assays were run in 100 mM MES buffer pH 6.5 with 200 μM NADPH, 250 μM decanal and 125 μg of MBP-FALDR fusion protein. All compounds were dissolved in buffer except dipyridyl, which was dissolved in dimethyl sulfoxide (DMSO).

[4] = system: MBP-FALDR enzyme (maltose binding protein-fatty aldehyde reductase fusion protein); experiment: Continuous spectrophotometric assay of fatty aldehyde reductase activity (NADPH oxidation at 340 nm), substrate comparison and kinetics; type: biochemical, Marinobacter aquaeolei VT8
Procedure: as §1, with “the NADPH. […] A linear fit of the data was then used to establish the rate, and the initial background rate was subtracted, to determine the rate associated with substrate reduction by the MBP-FALDR enzyme.” for “the NADPH.”
Having established that the MBP-FALDR would utilize NADPH as a substrate, it was possible to employ a continuous spectrophotometric assay to monitor substrate reduction rates based on the loss of absorbance at 340 nm when NADPH is oxidized to NADP^+. Using this assay, it was possible to establish the pH dependence of the reduction reaction. The rate of reaction was highest at pH 6.3, with a steep increase in activity going from 8.0 to 6.3. The rate at 6.3 was only slightly greater than at 6.5 ([…]). Several factors had to be considered in establishing the optimal pH of the assay. The first was the background oxidation of the NADPH without any MBP-FALDR enzyme present. […] The assays were run under an argon atmosphere to minimize oxidation of the NADPH by O2. A further consideration was the rapid degradation that occurs at the lowest pH values. […] So, for standard assays used here, a pH of 6.5 was selected, where the activity was minimally affected by slight variations in pH. The following discussion is useful in understanding some features and benefits of the various embodiments of the invention:
Utilizing the continuous assay to monitor MBP-FALDR activity, the dependence of rate on substrate concentration was determined for all of the commercially available substrates described above. Each assay was repeated multiple times to confirm the results from each single determination. The results obtained for cis-11-hexadecenal are shown in FIG. 2 and are representative of the results obtained for repeated determinations and for the other substrates. […] In addition, several factors could limit the observed activity. All of the substrates tested have limited solubility in aqueous solutions, and must first be suspended in solution via sonication. Even under these conditions, it is likely that the substrates exist inside micelles. The sonication process utilized here could result in the partial degradation of the substrate over time. Additionally, the suspension of the substrate in solution is only temporary, and the substrate slowly separates from aqueous solution. Due to these limitations, the measured activity is likely to be an underestimate of the actual activity. In the cell, the enzyme and substrate are likely associated with the hydrophobic membranes. […] It was also observed that the MBP-FALDR enzyme was unstable over time, even when stored at 4° C., losing as much as 50% of the activity over a period of a week. Though the purification is quite rapid, it is uncertain how much activity is lost during preparation. […]

[5] = Decanal reduction after Factor Xa removal of maltose binding protein; type: biochemical; settings: MBP removed by Factor Xa cleavage
Procedure: Since all the assays were conducted with the MBP-FALDR fusion protein, a principle concern was whether the fusion protein accurately represented the activity of the wild-type fatty aldehyde reducatase enzyme comprising the amino acid sequence of SEQ ID NO: 2. To examine whether the maltose binding protein affected the activity of the wild-type fatty aldehyde reducatase enzyme comprising the amino acid sequence of SEQ ID NO: 2, the maltose binding protein was removed from the N-terminus of the fatty aldehyde reducatase enzyme comprising the amino acid sequence of SEQ ID NO: 2 by Factor Xa cleavage. The near complete cleavage of maltose binding protein was verified by SDS-PAGE. This cleavage is facilitated by the incorporation of a factor Xa cleavage site (Ile-Glu-Gly-Arg) just upstream of the EcoRI site of the pMAL-c2x vector.

Row | Molecule | reverse reaction: aldehyde production by GC ([1]; with NADP+) | activity over background with NADH or NAD+ [2] | inhibition of decanal reduction [3] [%] | substrate activity in words ([4]; compared with decanal, substrate 100 μg/mL) | activity (substrate reduction rate) ([4]; substrate 100 μg/mL, 160 μg enzyme) [nmol/min/mg] | Relative Activity (Percent of Decanal) ([4]; substrate 100 μg/mL, 160 μg enzyme, decanal = 85 nmols/min/mg = 100) | Km ([4]; substrate of MBP-FALDR, Michaelis-Menten fit, NADPH, FIG. 2 substrate is cis-11-hexadecenal) [µM] | substrate conversion by GC ([1]; with NADPH, overnight, argon, room temperature, new peak confirmed as decanol by MS) | rate of substrate reduction versus MBP-FALDR fusion protein [5]
1 | CCCCCCCCCCO [decanol] | no detectable levels | no indication of activity over background | ~45 |  |  |  |  |  | 
2 | CCCCCCCCCC=O [Decanal] |  | no indication of activity over background |  | highest activity of the substrates tested | 85 | 100% of Decanal | ~100 | decrease in the decanal peak | 
3 | cleaved fatty aldehyde reducatase enzyme: fatty aldehyde reductase of SEQ ID NO: 2 freed from MBP by Factor Xa cleavage (protein, Marinobacter aquaeolei VT8) MAIQQVHHADTSSSKVLGQLRGKRVLITGTTGFLGKVVLERLIRAVPDIGAIYLLIRGNKRHPDARSRFLEEIATSSVFDRLREADSEGFDAFLEERIHCVTGEVTEAGFGIGQEDYRKLATELDAVINSAASVNFREELDKALAINTLCLRNIAGMVDLNPKLAVLQVSTCYVNGMNSGQVTESVIKPAGEAVPRSPDGFYEIEELVRLLQDKIEDVQARYSGKVLERKLVDLGIREANRYGWSDTYTFTKWLGEQLLMKALNGRTLTILRPSIIESALEEPAPGWIEGVKVADAIILAYAREKVTLFPGKRSGIIDVIPVDLVANSIILSLAEALGEPGRRRIYQCCSGGGNPISLGEFIDHLMAESKANYAAYDHLFYRQPSKPFLAVNRALFDLVISGVRLPLSLTDRVLKLLGNSRDLKMLRNLDTTQSLATIFGFYTAPDYIFRNDELMALANRMGEVDKGLFPVDARLIDWELYLRKIHLAGLNRYALKERKVYSLKTARQRKKAA |  |  |  |  |  |  |  |  | did not reveal any loss or improvement

From patent US20100203614A1, “FATTY ALDEHYDE REDUCTASE” (Utah State University, priority 2009, published 2010)
